Columns and labels:
[1] = test system: pY641-STAT6 in Peripheral Blood Mononuclear Cells (PBMC); assay: MSD-pSTAT-PBMC Assay (pSTAT6, IL-4 stimulated); format: cell-based, Human; conditions: Homo sapiens, compound 3 hrs, then 1 ng/mL IL-4 for 10 min
How it was run: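 Human PBMCs were preincubated 3 h with compound, then stimulated 10 min with 10 ng/mL IL-6 (pY705-STAT3) or 1 ng/mL IL-4 (pY641-STAT6). Lysates were read by MSD sandwich immunoassay, capturing total STAT and detecting phospho-STAT. Signal was unstimulated-subtracted and DMSO-normalised, with variable-slope IC50 binned A–D.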

[2] = test system: pY705-STAT3 in Peripheral Blood Mononuclear Cells (PBMC); assay: MSD-pSTAT-PBMC Assay (pSTAT3, IL-6 stimulated); format: cell-based, Human; conditions: Homo sapiens, compound 3 hrs, then 10 ng/mL IL-6 for 10 min
Description: Cryopreserved Peripheral Blood Mononuclear Cells (PBMC) are from AllCells. Recombinant Human IL-4 and IL-6 are from Peprotech. Mouse monoclonal anti-STAT3 antibody, rabbit monoclonal anti-pY705-STAT3 antibody, rabbit monoclonal Anti-pY641-STAT6 antibody, and lysis buffer are from Cell Signaling Technology (CST). Mouse monoclonal anti-STAT6 antibody is from BioLegend. Assay plates, blocker, and anti-rabbit secondary antibody are from Meso Scale Discovery (MSD).
Cryopreserved PBMCs were thawed out and allowed to recover overnight in IMDM+10% heat-inactivated FBS prior to plating 50,000 (STAT3) or 25,000 (STAT6) cells per well in 96-well U-bottom tissue culture plates. Cells were treated with compound for 3 hrs, then stimulated with 10 ng/mL IL-6 (STAT3) or 1 ng/mL IL-4 (STAT6) for 10 min. Cells were then spun down and washed with ice-cold PBS prior to lysing the cell pellet with 1× lysis buffer (CST) with 1×HALT protease and phosphatase inhibitor cocktail (Thermo). Lysates were transferred to and incubated overnight at 4° C. with shaking in QuickPlex 96-well high bind assay plates (MSD) pre-coated overnight with 30 μL per well of 0.6 μg/mL mouse monoclonal anti-STAT3 antibody (STAT3) or 2 μg/mL mouse monoclonal anti-STAT6 antibody (STAT6) in 1×PBS, and pre-blocked for 1 hour with 3% Blocker-A (MSD). Captured protein in the assay plates were then washed and probed with 25 μL per well of 0.25 μg/ml rabbit monoclonal anti-pY705-STAT3 antibody (STAT3) or […] rabbit monoclonal Anti-pY641-STAT6 antibody (STAT6) in 1% Blocker-A for 1 hour at room temperature with shaking, then washed and probed with 25 ul per well of 1 ug/ml Sulfo-TAG Labeled Goat Anti-Rabbit Antibody (MSD) in 1% Blocker-A for 1 hour at room temperature with shaking. Assay plates were then washed and 150 μL of 1× Read Buffer-T (MSD) was added to each well prior to reading on an SQ120 MSD Plate Reader. Assay signal from each sample was subtracted by the signal from unstimulated control wells and normalized to DMSO control wells. IC50 values were calculated using Graph Pad Prism Dose-Response Nonlinear Regression with variable slope. For both pSTAT3 and pSTAT6 A=≤100 nM; B=>100-1000 nM; C=>1000-3000 nM; and D=>3 μM.

Row | SMILES | IC50 [1] | IC50 [2]
1 | CC(=O)N1CC[C@H]2CC[C@@H](C(=O)N3C[C@H](c4ccccc4)[C@@H](C#N)C3)N2C(=O)[C@@H](NC(=O)c2ccc3ccc(C(F)(F)P(=O)(OCOC(=O)C(C)(C)C)OCOC(=O)C(C)(C)C)cc3c2)C1 (mixture of isomers) [Compound 323, ((((7-(((5S,8S, 10aR)-3-acetyl-8-((rel- trans)-3-cyano-4-phenyl-pyrrolidine-1-carbonyl)-6-oxodecahydro-pyrrolo[1,2-a][1,5]diazocin-5-yl)carbamoyl)naphthalen-2-yl)difluoro-methyl)phos-phoryl)bis(oxy)) bis(methylene) bis(2,2-dimethylpro-panoate)] | ≤ 100 nM | 1000 to 3000 nM
2 | CCCC(=O)SCCOP(=O)(OCCSC(=O)CCC)C(F)(F)c1ccc2ccc(C(=O)N[C@H]3CN(C(=O)c4n[nH]c5ccc(C)cc45)CC[C@H]4CC[C@@H](C(=O)N5CC(c6ccccc6)[C@@H](C#N)C5)N4C3=O)cc2c1 (relative stereo) [Compound 336, S,S′-(((((7-(((5S,8S,10aR)-8-((rel-trans)-3-cyano-4-phenylpyrrolidine-1-carbonyl)-3-(5-methyl-1H-indazole-3-carbonyl)-6-oxodecahydropyrrolo[1,2-a][1,5]diazocin-5-yl)carbamoyl)naphthalen-2-yl)difluoromethyl)phosphoryl)bis(oxy))bis(ethane-2,1-diyl)) dibutanethioate] | ≤ 100 nM | 1000 to 3000 nM
3 | CC(C)(C)C(=O)SCCOP(=O)(OCCSC(=O)C(C)(C)C)C(F)(F)c1ccc2ccc(C(=O)N[C@H]3CN(CC(F)F)CC[C@H]4CC[C@@H](C(=O)N5CC[C@H](c6ccccc6)[C@@H](C#N)C5)N4C3=O)cc2c1 (relative stereo) [Compound 340, S,S′-(((((7-(((5S,8S,10aR)-8-((rel-trans)-3-cyano-4-phenylpiperidine-1-carbonyl)-3-(2,2-difluoroethyl)-6-oxodecahydropyrrolo[1,2-a][1,5]diazocin-5-yl)carbamoyl)naphthalen-2-yl)difluoromethyl)phosphoryl)bis(oxy))bis (ethane-2,1-diyl))bis(2,2-dimethylpropanethioate)] | > 3000 nM | > 3000 nM
4 | CC(C)CC(=O)SCCOP(=O)(OCCSC(=O)CC(C)C)C(F)(F)c1ccc2ccc(C(=O)N[C@H]3CN(CC(F)F)CC[C@H]4CC[C@@H](C(=O)N5C[C@H](c6cc(F)cc(F)c6)[C@@H](C#N)C5)N4C3=O)cc2c1 (relative stereo) [Compound 341, S,S′-(((((7-(((5S,8S,10aR)-8-((rel-trans)-3-cyano-4-(3,5-difluorophenyl)pyrrolidine-1-carbonyl)-3-(2,2-difluoroethyl)-6-oxodecahydropyrrolo[1,2-a][1,5]diazocin-5-yl)carbamoyl)naphthalen-2-yl)difluoromethyl)phosphoryl)bis(oxy))bis(ethane-2,1-diyl))bis(3-methylbutanethioate)] | 1000 to 3000 nM | > 3000 nM
5 | COC(=O)N1CC[C@H]2CC[C@@H](C(=O)N3C[C@H](c4ccccc4)[C@@H](C#N)C3)N2C(=O)[C@@H](NC(=O)c2cc3cc(C(F)(F)P(=O)(OCOC(=O)C(C)(C)C)OCOC(=O)C(C)(C)C)ccc3s2)C1 (relative stereo) [Compound 349, ((((2-(((5S,8S,10aR)-8-((rel-trans)-3-cyano-4-phenylpyrrolidine-1-carbonyl)-3-(methoxycarbonyl)-6-oxodecahydropyrrolo[1,2-a][1,5]diazocin-5-yl)carbamoyl)benzo[b]thiophen-5-yl)difluoromethyl)phosphoryl)bis(oxy)) bis(methylene) bis(2,2-dimethylpropanoate)] | ≤ 100 nM | 100 to 1000 nM
6 | CC(C)OC(=O)[C@H](C)NP(=O)(Cc1ccc2sc(C(=O)N[C@H]3CN(Cc4ccn5ccnc5c4)CC[C@H]4CC[C@@H](C(=O)N5CC(c6cccnc6)C5)N4C3=O)cc2c1)NCc1ccccc1 (some centres unmarked) [Compound 333] | – | > 3000 nM
7 | CC(C)OC(=O)OCOP(=O)(Cc1ccc2sc(C(=O)N[C@H]3CN(Cc4ccn5ccnc5c4)CC[C@H]4CC[C@@H](C(=O)N5CC(c6cccnc6)C5)N4C3=O)cc2c1)OCOC(=O)OC(C)C [Compound 338, ((((2-(((5S,8S,10aR)-3-(imidazo[1,2-a]pyridin-7-ylmethyl)-6-oxo-8-(3-(pyridin-3-yl)azetidine-1-carbonyl)decahydropyrrolo[1,2-a][1,5]diazocin-5-yl)carbamoyl)benzo[b]thiophen-5-yl)methyl)phosphoryl)bis (oxy))bis(methylene)diisopropylbis(carbonate)] | – | 100 to 1000 nM
8 | Cc1ccc2onc(C(=O)N3CC[C@H]4CC[C@@H](C(=O)N5C[C@H](c6ccn(C)c(=O)c6)CC56CC6)N4C(=O)[C@@H](NC(=O)c4ccc5ccc(C(F)(F)P(=O)(OCCSC(=O)C(C)(C)C)OCCSC(=O)C(C)(C)C)cc5c4)C3)c2c1 [Compound 437, S,S′-((((difluoro(7 (((5S,8S,10aR)-8-((S)-6-(1-methyl-2-oxo-1,2-dihydropyridin-4-yl)-4-azaspiro[2.4]heptane-4-carbonyl)-3-(5-methylbenzo [d]isoxazole-3-carbonyl)-6-oxodeca-hydropyrrolo [1,2-a][1,5]diazocin-5-yl)carbamoyl)naphthalen-2-yl)methyl)phosphoryl)bis (oxy))bis (ethane-2,1-diyl))bis(2,2-dimethyl-propanethioate)] | ≤ 100 nM | –
9 | Cc1ccc2onc(C(=O)N3CC[C@H]4CC[C@@H](C(=O)N5C[C@H](c6ccn(C)c(=O)c6)CC56CC6)N4C(=O)[C@@H](NC(=O)c4ccc5ccc(C(F)(F)P(=O)(OCCSC(=O)CC(C)C)OCCSC(=O)CC(C)C)cc5c4)C3)c2c1 [Compound 438, S,S′-((((difluoro(7 (((5S,8S,10aR)-8-((S)-6-(1-methyl-2-oxo-1,2-dihydropyridin-4-yl)-4-azaspiro[2.4]heptane-4-carbonyl)-3-(5-methylbenzo [d]isoxazole-3-carbonyl)-6-oxodeca-hydropyrrolo [1,2-a][1,5]diazocin-5-yl)carbamoyl)naphthalen-2-yl)methyl)phosphoryl)bis (oxy))bis (ethane-2,1-diyl))bis(3-methylbutane thioate)] | ≤ 100 nM | –
10 | CCCC(=O)SCCOP(=O)(OCCSC(=O)CCC)C(F)(F)c1ccc2ccc(C(=O)N[C@H]3CN(C(=O)c4noc5ccc(C)cc45)CC[C@H]4CC[C@@H](C(=O)N5C[C@H](c6ccn(C)c(=O)c6)CC56CC6)N4C3=O)cc2c1 [Compound 439, S,S′-((((difluoro(7 (((5S,8S,10aR)-8-((S)-6-(1-methyl-2-oxo-1,2-dihydropyridin-4-yl)-4-azaspiro[2.4]heptane-4-carbonyl)-3-(5-methylbenzo [d]isoxazole-3-carbonyl)-6-oxodeca-hydropyrrolo [1,2-a][1,5]diazocin-5-yl)carbamoyl)naphthalen-2-yl)methyl)phosphoryl)bis (oxy))bis (ethane-2,1-diyl)) dibutanethioate] | ≤ 100 nM | –
11 | CCCOC(=O)[C@H](C)NP(=O)(Oc1ccccc1)C(F)c1ccc2ccc(C(=O)N[C@H]3CN(C(=O)c4noc5ccc(C)cc45)CC[C@H]4CC[C@@H](C(=O)N5C[C@@H](C)O[C@@H](C)C5)N4C3=O)cc2c1 (stereo partly drawn) [Compound 440, propyl (((7-(((5S,8S,10aR)-8-((2R,6S)-2,6-dimethyl-morpholine-4-carbonyl)-3-(5-methylbenzo [d]isoxazole-3-carbonyl)-6-oxodeca-hydropyrrolo [1,2-a][1,5]diazocin-5-yl)carbamoyl)naphthalen-2-yl)fluoromethyl) (phenoxy)phosphoryl)-L-alaninate] | ≤ 100 nM | –
12 | CCCOC(=O)[C@H](C)NP(=O)(Oc1ccccc1)C(F)c1ccc2sc(C(=O)N[C@H]3CN(CC(F)F)CC[C@H]4CC[C@@H](C(=O)N5C[C@@H](C#N)[C@H](c6ccccc6)C5)N4C3=O)cc2c1 (some centres unmarked) [Compound 441] | ≤ 100 nM | –

— patent publication US20250179103A1, “6-OXODECAHYDROPYRROLO[1,2-A][1,5]DIAZOCINE AND 6-OXODECAHYDRO-4H-PYRROLO[2,1-D][1,5]THIAZOCINE DERIVATIVES AS STAT3 AND STAT6 MODULATORS FOR THE TREATMENT OF CANCER AND INFLAMMATORY CONDITIONS” (Recludix Pharma, Inc., priority 2022, published 2025)
